Experiments:
Type in all cases: functional, cell-based
[1] = target: T1, Multidrug resistance-associated protein 1 (Mus musculus, UniProt O35379); assay: TP_TRANSPORTER: inhibition of 5-carboxyfluorescein accumulation in the presence of indomethacin at a concentration of 200uM in MRP1-expressing HeLa cells; set-up: scale not given: the % may be the effect or the level left; details: human
[2] = target: T2, ATP-binding cassette sub-family C member 2 (Homo sapiens, UniProt Q92887); assay: TP_TRANSPORTER: inhibition of glyburide accumulation in MRP2-expressing MDCK cells; details: dog
T2 sequence (Q92887 whole entry): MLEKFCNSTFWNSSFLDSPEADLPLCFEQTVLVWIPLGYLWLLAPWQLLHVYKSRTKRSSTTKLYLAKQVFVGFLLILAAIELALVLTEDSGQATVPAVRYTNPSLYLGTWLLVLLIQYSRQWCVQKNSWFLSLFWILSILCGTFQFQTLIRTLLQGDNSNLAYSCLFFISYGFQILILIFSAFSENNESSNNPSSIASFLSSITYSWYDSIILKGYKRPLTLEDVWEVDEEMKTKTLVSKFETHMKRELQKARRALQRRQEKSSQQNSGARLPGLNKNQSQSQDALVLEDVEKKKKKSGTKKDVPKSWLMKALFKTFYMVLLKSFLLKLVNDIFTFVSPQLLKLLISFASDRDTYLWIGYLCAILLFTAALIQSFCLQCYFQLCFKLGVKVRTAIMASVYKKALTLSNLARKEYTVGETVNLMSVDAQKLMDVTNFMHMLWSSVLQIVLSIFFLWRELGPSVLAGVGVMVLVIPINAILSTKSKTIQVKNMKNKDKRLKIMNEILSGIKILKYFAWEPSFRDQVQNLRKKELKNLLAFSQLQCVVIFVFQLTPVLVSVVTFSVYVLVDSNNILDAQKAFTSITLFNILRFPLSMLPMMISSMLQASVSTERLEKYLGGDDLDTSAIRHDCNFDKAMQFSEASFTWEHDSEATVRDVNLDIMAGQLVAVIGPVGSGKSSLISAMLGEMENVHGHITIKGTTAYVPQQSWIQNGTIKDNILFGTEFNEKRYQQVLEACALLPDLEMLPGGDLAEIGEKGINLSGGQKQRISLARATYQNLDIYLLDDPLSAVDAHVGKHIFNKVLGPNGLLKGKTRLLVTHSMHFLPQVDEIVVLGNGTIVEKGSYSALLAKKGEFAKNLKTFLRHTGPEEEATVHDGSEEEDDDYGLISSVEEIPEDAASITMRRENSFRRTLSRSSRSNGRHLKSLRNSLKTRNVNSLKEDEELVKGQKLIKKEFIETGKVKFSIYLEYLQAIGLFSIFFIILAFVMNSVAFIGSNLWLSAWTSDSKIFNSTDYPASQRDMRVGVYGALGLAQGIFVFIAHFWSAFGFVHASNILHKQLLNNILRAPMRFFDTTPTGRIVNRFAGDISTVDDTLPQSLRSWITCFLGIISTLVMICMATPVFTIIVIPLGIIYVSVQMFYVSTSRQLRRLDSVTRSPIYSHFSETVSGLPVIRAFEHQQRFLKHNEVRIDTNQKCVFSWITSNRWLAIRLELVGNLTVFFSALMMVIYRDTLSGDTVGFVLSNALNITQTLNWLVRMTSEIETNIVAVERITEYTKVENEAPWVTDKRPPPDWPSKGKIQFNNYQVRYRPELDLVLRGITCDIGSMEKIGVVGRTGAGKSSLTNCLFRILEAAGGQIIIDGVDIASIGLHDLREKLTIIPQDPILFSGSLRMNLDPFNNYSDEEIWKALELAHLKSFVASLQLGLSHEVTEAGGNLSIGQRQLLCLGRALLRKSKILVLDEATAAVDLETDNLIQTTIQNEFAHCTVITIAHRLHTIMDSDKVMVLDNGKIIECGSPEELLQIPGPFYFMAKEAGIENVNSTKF

[3] = target: Multidrug resistance associated protein (Homo sapiens) (UniProt Q96QA9); assay: TP_TRANSPORTER: inhibition of glyburide accumulation by indomethacin at a concentration of 200uM in MRP3-expressing MDCK cells
Multidrug resistance associated protein (Homo sapiens), sequence (Q96QA9 as listed by the source): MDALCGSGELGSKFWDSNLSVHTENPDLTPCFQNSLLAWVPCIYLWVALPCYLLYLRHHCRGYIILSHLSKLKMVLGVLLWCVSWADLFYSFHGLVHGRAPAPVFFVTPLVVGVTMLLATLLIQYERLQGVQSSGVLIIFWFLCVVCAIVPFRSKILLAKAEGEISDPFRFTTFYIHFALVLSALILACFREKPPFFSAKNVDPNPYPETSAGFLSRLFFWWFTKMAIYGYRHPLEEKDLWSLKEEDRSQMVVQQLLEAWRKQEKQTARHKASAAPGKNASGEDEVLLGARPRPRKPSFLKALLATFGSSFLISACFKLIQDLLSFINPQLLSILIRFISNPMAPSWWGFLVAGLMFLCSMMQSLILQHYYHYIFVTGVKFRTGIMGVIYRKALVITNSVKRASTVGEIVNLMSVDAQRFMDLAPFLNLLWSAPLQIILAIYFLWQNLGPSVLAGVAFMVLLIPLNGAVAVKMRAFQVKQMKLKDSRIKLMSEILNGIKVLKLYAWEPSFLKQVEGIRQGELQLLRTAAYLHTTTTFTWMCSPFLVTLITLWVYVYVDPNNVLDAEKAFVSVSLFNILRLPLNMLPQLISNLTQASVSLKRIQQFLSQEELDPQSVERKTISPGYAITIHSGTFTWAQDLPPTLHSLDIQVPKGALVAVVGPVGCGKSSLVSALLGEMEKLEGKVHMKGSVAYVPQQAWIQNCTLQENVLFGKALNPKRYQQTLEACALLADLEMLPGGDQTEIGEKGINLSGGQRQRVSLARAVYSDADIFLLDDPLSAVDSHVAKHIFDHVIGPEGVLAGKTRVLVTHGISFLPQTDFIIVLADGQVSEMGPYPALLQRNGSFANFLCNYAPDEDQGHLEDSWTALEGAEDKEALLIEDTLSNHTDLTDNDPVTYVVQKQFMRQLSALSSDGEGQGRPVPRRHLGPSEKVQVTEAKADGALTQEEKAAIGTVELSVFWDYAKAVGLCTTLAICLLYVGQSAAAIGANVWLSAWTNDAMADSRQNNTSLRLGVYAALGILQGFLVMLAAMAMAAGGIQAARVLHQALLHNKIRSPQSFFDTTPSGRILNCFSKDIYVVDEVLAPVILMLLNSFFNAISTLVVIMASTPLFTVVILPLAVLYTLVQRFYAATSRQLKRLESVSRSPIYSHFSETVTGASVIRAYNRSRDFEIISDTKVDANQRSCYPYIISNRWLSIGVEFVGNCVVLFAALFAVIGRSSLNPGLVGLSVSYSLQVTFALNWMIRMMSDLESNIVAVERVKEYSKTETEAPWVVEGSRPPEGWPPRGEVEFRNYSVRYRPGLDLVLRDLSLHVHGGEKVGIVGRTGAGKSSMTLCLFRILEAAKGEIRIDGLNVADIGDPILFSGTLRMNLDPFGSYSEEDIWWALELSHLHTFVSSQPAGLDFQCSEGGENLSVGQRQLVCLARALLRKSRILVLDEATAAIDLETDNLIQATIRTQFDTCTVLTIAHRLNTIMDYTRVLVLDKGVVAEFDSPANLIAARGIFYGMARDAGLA

[4] = target: T1, Multidrug resistance-associated protein 1; assay: TP_TRANSPORTER: inhibition of glyburide accumulation in the presence of indomethacin at a concentration of 200uM in MRP1-expressing HeLa cells; details: human
[5] = target: Multidrug resistance associated protein (Homo sapiens) (UniProt Q96QA9); assay: TP_TRANSPORTER: inhibition of 5-carboxyfluorescein accumulation by indomethacin at a concentration of 200uM in MRP3-expressing MDCK cells; set-up: scale not given: the % may be the effect or the level left
[6] = target: Multidrug resistance associated protein (Homo sapiens) (UniProt Q96QA9); assay: TP_TRANSPORTER: inhibition of 5-carboxyfluorescein accumulation by glyburide at a concentration of 10uM in MRP3-expressing MDCK cells
[7] = target: Multidrug resistance associated protein (Homo sapiens) (UniProt Q96QA9); assay: TP_TRANSPORTER: inhibition of 5-carboxyfluorescein accumulation by glyburide at a concentration of 200uM in MRP3-expressing MDCK cells; set-up: scale not given: the % may be the effect or the level left
[8] = target: T2, ATP-binding cassette sub-family C member 2; assay: TP_TRANSPORTER: inhibition of 5-carboxyfluorescein accumulation in MRP2-expressing MDCK cells; details: dog
[9] = target: T3, Broad substrate specificity ATP-binding cassette transporter ABCG2 (Homo sapiens, UniProt Q9UNQ0); assay: TP_TRANSPORTER: inhibition of mitoxantrone efflux in BCRP-expressing MCF7-MX cells
T3 sequence (Q9UNQ0 whole entry): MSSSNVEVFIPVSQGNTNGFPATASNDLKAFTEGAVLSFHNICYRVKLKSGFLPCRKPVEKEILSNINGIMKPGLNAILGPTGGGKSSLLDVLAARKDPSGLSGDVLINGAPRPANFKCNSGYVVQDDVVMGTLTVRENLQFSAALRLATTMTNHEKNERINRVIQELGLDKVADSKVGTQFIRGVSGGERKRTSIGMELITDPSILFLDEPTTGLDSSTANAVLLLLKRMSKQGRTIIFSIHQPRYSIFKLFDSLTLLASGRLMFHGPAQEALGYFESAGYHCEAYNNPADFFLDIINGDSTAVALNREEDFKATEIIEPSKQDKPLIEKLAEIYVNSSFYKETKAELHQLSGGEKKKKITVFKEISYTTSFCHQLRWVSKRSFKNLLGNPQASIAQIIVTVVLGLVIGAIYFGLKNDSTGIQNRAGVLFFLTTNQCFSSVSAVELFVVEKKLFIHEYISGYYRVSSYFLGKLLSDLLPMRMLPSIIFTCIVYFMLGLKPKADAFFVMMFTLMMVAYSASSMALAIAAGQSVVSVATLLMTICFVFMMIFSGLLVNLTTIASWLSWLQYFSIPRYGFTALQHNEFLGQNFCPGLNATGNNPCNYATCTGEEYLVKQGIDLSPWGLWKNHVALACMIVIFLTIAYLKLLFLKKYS

[10] = target: T2, ATP-binding cassette sub-family C member 2; assay: TP_TRANSPORTER: inhibition of 5-carboxyfluorescein accumulation by glyburide at a concentration of 200uM in MRP2-expressing MDCK cells; set-up: scale not given: the % may be the effect or the level left; details: dog
[11] = target: T1, Multidrug resistance-associated protein 1; assay: TP_TRANSPORTER: inhibition of 5-carboxyfluorescein accumulation in the presence of glyburide at a concentration of 10uM in MRP1-expressing HeLa cells; details: human

T1 sequence (O35379 whole entry): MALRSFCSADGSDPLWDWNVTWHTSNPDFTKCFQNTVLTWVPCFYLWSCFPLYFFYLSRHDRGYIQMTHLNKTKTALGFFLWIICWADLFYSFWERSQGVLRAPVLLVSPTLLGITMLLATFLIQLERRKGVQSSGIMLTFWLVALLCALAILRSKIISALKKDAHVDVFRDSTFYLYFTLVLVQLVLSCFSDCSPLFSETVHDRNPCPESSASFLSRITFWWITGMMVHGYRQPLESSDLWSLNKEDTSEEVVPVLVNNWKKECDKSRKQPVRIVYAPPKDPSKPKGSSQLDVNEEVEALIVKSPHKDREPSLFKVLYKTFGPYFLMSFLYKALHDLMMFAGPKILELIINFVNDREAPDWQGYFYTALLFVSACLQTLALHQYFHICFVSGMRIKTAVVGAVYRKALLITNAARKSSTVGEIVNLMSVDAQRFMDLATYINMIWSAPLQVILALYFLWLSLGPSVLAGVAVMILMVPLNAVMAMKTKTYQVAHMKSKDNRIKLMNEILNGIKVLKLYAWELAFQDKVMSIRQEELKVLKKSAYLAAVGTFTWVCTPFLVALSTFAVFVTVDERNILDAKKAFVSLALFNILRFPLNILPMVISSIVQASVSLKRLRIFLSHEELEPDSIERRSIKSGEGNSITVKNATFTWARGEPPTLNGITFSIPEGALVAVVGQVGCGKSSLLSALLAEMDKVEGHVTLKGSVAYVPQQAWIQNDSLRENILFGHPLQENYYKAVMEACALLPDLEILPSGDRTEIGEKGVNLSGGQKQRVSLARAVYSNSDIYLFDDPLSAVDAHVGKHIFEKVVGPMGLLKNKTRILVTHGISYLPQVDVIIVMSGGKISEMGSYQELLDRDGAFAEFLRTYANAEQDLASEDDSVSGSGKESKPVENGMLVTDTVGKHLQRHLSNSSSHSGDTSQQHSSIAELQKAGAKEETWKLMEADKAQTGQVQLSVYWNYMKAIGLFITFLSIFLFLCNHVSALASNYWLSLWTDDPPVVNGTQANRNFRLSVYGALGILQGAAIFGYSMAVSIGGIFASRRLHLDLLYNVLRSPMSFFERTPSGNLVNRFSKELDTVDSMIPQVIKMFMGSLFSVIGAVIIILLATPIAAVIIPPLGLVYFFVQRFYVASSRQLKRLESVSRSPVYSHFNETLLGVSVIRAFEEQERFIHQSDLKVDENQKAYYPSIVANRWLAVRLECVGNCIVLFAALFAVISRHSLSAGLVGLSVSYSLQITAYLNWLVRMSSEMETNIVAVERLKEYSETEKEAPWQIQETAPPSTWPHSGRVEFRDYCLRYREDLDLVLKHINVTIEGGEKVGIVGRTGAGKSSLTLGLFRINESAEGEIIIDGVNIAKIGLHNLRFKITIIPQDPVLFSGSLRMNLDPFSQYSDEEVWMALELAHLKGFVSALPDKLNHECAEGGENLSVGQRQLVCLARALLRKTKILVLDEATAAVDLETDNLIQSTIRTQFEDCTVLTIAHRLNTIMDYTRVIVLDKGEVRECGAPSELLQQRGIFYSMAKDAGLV

Activity [1] [%] | Activity [2] | Activity [3] [fold] | Activity [4] | Activity [5] [%] | Activity [6] | Activity [7] [%] | Activity [8] | Activity [10] [%] | Activity [11] | SMILES | IC50 [9] [µM]
170 | is not an inhibitor [-] | 1.8 | inhibitor [+] | 350 |  |  |  |  |  | COc1ccc2c(c1)c(CC(=O)O)c(C)n2C(=O)c1ccc(Cl)cc1 [INDOMETHACIN] | 
 |  |  |  |  | is not a inhibitor [-] | 1350 | is not an inhibitor [-] | 230 | is not an inhibitor [-] | COc1ccc(Cl)cc1C(=O)NCCc1ccc(S(=O)(=O)NC(=O)NC2CCCCC2)cc1 [GLYBURIDE] | 150

From ChEMBL document CHEMBL2073864, “Transport of glyburide by placental ABC transporters: implications in fetal drug exposure” (Placenta, 2006)
